The source made the active and inactive calls. For most assays here, no stated cut-off is given here; in the data, actives have a measured EC50 and inactives only a lower limit.
Key:
[1] = target: T1, Sentrin-specific protease 7 (Homo sapiens, UniProt Q9BQF6); experiment: inhibition of human SENP7 cleavage activity – biochemical, luminescence, set 2, SAR follow-up (AID 588600); assay type: functional
T1 sequence (Q9BQF6 whole entry): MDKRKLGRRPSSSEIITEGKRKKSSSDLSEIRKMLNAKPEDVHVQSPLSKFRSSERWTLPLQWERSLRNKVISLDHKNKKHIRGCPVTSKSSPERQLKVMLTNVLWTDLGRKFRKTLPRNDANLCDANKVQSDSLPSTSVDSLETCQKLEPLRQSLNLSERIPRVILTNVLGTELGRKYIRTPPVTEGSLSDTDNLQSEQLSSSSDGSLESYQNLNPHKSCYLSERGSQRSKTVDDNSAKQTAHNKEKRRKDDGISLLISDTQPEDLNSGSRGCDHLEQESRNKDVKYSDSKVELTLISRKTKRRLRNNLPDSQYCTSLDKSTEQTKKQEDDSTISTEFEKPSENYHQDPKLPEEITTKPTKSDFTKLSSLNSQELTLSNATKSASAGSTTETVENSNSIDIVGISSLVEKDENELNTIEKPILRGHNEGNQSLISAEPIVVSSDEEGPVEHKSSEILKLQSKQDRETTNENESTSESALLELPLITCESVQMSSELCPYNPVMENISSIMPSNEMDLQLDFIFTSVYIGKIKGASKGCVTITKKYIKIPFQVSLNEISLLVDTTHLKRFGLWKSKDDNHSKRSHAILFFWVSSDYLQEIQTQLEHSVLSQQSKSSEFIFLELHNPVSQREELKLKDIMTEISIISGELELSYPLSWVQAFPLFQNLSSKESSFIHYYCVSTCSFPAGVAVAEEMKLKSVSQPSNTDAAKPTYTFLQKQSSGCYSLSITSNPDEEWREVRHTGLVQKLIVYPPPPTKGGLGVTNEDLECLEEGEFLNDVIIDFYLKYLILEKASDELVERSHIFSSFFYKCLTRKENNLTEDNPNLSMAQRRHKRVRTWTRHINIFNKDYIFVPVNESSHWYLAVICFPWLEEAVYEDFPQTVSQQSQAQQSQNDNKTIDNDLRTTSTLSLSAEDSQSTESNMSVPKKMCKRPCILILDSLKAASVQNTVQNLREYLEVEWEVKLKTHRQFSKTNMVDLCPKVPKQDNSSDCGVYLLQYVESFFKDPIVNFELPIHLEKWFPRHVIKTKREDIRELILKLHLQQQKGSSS

Caspase-3 = target: T2, Caspase-3 (Homo sapiens, UniProt P42574); experiment: inhibition of recombinant caspase-3 activity – biochemical, luminescence, set 2, selectivity assay for SENP protease inhibitor project, SAR follow-up (AID 588599); assay type: functional
T2 sequence (P42574 whole entry): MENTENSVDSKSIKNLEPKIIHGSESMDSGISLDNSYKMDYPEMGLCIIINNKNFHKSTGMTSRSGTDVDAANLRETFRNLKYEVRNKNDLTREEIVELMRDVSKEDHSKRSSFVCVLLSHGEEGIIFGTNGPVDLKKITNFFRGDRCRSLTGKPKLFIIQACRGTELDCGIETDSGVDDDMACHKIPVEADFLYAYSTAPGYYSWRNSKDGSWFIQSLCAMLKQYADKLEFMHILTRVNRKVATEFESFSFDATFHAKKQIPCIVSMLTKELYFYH

[2] = target: T3, Sentrin-specific protease 6 (Homo sapiens, UniProt Q9GZR1); experiment: inhibition of human SENP6 catalytic domain – biochemical, luminescence, set 2, SAR follow-up (AID 588598); assay type: functional
T3 sequence (Q9GZR1 whole entry): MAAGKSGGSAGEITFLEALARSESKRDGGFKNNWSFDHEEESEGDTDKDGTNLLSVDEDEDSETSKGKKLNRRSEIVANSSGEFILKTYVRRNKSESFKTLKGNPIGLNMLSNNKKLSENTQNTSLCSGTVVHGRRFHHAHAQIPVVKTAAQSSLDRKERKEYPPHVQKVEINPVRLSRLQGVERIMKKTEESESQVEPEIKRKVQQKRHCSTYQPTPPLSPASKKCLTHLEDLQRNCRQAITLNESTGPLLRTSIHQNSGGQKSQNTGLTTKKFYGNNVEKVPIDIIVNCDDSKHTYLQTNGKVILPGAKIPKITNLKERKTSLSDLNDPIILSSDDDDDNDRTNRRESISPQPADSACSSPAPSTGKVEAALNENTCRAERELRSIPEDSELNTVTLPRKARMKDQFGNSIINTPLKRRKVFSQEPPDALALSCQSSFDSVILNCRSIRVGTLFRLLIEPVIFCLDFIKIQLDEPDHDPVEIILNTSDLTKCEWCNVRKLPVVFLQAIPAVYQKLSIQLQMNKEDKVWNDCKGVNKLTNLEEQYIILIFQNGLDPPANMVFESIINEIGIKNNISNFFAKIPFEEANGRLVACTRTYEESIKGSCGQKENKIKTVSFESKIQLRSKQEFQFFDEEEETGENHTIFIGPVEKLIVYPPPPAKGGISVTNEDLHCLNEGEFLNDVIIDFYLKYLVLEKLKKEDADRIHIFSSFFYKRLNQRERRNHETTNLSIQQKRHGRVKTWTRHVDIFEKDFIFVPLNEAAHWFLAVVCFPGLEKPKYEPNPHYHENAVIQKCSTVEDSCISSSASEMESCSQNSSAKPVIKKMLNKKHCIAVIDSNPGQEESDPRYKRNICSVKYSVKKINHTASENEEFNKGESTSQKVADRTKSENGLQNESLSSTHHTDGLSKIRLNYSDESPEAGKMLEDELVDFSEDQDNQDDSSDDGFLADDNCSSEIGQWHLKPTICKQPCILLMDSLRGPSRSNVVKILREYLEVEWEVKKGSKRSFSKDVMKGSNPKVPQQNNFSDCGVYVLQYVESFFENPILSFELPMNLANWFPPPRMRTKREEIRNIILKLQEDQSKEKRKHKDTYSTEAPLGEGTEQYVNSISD

[3] = target: T4, Sentrin-specific protease 8 (Homo sapiens, UniProt Q96LD8); experiment: inhibition of sentrin protease 8 – biochemical, luminescence, set 2, SAR follow-up (AID 588601); assay type: functional
T4 sequence (Q96LD8 whole entry): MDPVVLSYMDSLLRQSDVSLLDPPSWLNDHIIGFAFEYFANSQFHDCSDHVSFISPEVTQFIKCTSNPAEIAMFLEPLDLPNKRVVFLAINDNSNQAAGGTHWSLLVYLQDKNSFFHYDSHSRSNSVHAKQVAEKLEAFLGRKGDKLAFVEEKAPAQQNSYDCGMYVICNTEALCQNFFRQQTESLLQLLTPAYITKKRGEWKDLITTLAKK

[4] = target: Serine/threonine-protein phosphatase (Candida dubliniensis (strain CD36 / CBS 7987 / NCPF 3949 / NRRLY-17841) (Yeast), UniProt B9W6M3); experiment: blockers of CaCl2-induced CDRE-lacZ signaling – S. cerevisiae, luminescence, secondary, dose response (AID 2388); assay type: functional, cell-based;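 further: yeast reporter cells carrying a calcineurin-responsive lacZ construct stimulated with calcium chloride; luminescent beta-galactosidase reporter signal in whole cells rather than isolated phosphatase activity; potency for inhibition where a drop in reporter signal means calcineurin blockade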
[5] = target: Intestinal-type alkaline phosphatase (Mus musculus, UniProt P24822); experiment: PubChem AID 488874; assay type: functional
[6] = alpha-synuclein stem-loop translation blockers – luminescence, H4 neuroglioblastoma cells, dose confirmation, confirmation (AID 2454); assay type: functional, cell-based;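 further: H4 neuroglioblastoma cells carrying an alpha-synuclein 5'UTR luciferase reporter; potency for inhibition of the luciferase signal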
[7] = target: T5, Intestinal-type alkaline phosphatase (Homo sapiens, UniProt P09923); experiment: activation of human intestinal alkaline phosphatase – biochemical, luminescent, uHTS hits, set 2, dose response (AID 488817); assay type: functional;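 further: potency of activators that raise enzyme activity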
INS1 = experiment: INS-1E survival protection against cytokine death – cell-based, luminescence, retest, dose response (AID 449756); assay type: functional; conditions: Rattus norvegicus;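 further: cell death triggered by IL-1 beta plus TNF-alpha plus IFN-gamma mixture; protective hits raise ATP signal compared with cytokine alone wells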
[8] = NIH-3T3 fibroblast cytotoxicity, dose response, cytotoxicity control, cell-based, fluorescence, Alamar Blue, secondary assay (AID 2327); assay type: functional;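 further: NIH-3T3 mouse fibroblasts cultured with fluconazole at 8 µg/mL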
[9] = Counterscreen for AddAB inhibitors: absorbance-based bacterial cell-based high throughput dose response assay for inhibitors of bacterial viability. [Related pubchem assays (depositor defined):AID435030, AID449728, AID449731, AID488942, AID488955, AID488956]; assay type: functional
[10] = target: ATP-dependent molecular chaperone HSP82 (Candida albicans (strain WO-1) (Yeast), UniProt C4YTQ8); experiment: steroid-induced GRE reporter decrease in yeast – S. cerevisiae, luminescence, Hsp90 inhibitor project, dose response (AID 2400); assay type: functional, cell-based;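 further: beta-galactosidase luminescence from glucocorticoid response element reporter as proxy for Hsp90 function; inhibitor potency where signal loss means Hsp90 inhibition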
[11] = target: T5, Intestinal-type alkaline phosphatase; experiment: human intestinal alkaline phosphatase activators, dose response, biochemical, luminescence, uHTS hits (AID 463120); assay type: functional
[12] = alpha-synuclein stem-loop luciferase translation blockers – H4 neuroglioma cells, luminescence, confirmation (AID 1988); assay type: functional, cell-based
[13] = luciferase reporter signal reduction – luminescence, H4-C neuroglioblastoma cells, dose response (AID 2458); assay type: functional, cell-based;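 further: H4 neuroglioblastoma cells stably carrying a luciferase reporter gene fusion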
cells = assay type: functional, cell-based
Exodeoxyribonuclease V = Exodeoxyribonuclease V (Escherichia coli (strain K12), UniProt P04993+P07648+P08394); experiment: RecBCD inhibition via phage-restricted bacterial growth – absorbance, V66 E. coli, mutant T4 phage, counter-screen for AddAB inhibitor project, dose response (AID 492957); assay type: functional, cell-based, Escherichia coli str. K-12 substr. MG1655
[14] = fluconazole-exposed Candida albicans growth modulators – fluorescence, retest, confirmation (AID 2467); assay type: functional, cell-based
[15] = target: T6, Alkaline phosphatase, tissue-nonspecific isozyme (Homo sapiens, UniProt P05186); experiment: activation of tissue-nonspecific alkaline phosphatase – biochemical, TNAP isozyme, human IAP uHTS hits, selectivity assay for human IAP activator project, dose response (AID 488886); assay type: functional;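 further: potency of compounds raising TNAP activity as a selectivity check on IAP activators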
T6 sequence (P05186 whole entry): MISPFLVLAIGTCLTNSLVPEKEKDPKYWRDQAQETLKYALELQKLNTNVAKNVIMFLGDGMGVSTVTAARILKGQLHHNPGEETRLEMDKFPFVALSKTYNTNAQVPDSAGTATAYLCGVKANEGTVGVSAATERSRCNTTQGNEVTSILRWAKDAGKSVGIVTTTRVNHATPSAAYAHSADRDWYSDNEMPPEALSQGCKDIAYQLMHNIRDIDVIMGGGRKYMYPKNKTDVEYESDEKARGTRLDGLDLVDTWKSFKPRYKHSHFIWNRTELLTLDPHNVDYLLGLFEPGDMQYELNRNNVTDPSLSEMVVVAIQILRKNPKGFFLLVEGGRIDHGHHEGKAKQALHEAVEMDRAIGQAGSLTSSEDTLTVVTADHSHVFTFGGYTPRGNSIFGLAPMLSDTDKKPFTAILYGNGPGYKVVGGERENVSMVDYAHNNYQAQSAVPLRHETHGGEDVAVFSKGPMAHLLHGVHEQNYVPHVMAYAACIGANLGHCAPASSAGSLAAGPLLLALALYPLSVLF

[16] = luciferase reporter signal suppression in cells – H4 neuroglioma cells, luminescence, dose response (AID 1990); assay type: functional, cell-based

T5 sequence (P09923 whole entry): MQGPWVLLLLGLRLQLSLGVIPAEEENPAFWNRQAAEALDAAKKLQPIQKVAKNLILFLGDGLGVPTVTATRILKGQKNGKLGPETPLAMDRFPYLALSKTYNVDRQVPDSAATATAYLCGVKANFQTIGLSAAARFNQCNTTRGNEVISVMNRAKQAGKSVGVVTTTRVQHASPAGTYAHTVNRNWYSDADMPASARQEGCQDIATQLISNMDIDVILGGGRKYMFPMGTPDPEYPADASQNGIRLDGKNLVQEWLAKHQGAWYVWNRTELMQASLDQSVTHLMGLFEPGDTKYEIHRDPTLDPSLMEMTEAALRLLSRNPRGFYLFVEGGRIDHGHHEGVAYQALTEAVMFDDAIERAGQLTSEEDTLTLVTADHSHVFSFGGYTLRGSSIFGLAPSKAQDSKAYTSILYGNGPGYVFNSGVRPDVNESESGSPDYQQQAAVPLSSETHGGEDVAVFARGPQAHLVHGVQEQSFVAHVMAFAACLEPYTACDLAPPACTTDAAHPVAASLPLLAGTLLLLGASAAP
Chain of Exodeoxyribonuclease V (P04993 whole entry): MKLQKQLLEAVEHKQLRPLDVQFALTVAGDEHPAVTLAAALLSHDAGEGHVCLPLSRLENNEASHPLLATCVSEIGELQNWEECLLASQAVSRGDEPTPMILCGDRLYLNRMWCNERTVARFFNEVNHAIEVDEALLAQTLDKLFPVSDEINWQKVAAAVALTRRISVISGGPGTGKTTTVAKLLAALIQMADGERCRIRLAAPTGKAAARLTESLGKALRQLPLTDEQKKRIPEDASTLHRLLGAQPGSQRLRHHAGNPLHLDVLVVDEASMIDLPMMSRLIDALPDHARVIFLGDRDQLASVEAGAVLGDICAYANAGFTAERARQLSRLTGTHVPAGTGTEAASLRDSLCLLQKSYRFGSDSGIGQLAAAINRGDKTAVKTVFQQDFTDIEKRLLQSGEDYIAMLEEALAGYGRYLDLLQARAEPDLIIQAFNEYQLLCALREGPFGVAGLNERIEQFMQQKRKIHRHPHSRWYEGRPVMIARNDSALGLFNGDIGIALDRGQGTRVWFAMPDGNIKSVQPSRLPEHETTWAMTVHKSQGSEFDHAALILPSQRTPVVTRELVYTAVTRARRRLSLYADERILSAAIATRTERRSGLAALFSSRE
Chain of Exodeoxyribonuclease V (P07648 whole entry): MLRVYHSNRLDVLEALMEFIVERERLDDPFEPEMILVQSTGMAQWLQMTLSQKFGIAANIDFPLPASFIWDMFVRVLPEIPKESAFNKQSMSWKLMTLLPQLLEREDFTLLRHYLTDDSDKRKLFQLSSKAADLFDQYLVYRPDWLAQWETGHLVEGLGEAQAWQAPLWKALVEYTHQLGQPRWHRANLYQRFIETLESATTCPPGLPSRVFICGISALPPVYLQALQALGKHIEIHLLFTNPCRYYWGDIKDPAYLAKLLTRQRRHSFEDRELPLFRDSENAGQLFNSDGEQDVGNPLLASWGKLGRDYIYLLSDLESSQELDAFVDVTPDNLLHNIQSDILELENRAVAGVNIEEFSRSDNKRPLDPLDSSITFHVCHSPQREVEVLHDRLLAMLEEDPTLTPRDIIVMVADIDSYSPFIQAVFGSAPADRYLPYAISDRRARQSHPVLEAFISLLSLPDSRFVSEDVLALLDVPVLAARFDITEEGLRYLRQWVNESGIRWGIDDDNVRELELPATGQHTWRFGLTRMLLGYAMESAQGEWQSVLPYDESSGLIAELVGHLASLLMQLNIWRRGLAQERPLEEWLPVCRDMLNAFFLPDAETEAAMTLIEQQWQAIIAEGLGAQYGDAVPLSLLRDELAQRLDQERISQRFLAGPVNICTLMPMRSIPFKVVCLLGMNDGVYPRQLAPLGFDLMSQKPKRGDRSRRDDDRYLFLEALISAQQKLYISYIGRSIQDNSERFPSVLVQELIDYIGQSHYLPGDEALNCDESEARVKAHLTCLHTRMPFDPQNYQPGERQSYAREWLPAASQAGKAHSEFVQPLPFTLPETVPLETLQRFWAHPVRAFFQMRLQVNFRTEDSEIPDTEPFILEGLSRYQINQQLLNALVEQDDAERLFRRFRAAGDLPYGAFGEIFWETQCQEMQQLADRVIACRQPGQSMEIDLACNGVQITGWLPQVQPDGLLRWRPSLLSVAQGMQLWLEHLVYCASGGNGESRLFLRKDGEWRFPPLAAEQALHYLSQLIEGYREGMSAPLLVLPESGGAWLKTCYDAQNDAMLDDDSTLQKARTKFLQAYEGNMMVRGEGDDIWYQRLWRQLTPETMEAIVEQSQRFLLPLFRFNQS
Chain of Exodeoxyribonuclease V (P08394 whole entry): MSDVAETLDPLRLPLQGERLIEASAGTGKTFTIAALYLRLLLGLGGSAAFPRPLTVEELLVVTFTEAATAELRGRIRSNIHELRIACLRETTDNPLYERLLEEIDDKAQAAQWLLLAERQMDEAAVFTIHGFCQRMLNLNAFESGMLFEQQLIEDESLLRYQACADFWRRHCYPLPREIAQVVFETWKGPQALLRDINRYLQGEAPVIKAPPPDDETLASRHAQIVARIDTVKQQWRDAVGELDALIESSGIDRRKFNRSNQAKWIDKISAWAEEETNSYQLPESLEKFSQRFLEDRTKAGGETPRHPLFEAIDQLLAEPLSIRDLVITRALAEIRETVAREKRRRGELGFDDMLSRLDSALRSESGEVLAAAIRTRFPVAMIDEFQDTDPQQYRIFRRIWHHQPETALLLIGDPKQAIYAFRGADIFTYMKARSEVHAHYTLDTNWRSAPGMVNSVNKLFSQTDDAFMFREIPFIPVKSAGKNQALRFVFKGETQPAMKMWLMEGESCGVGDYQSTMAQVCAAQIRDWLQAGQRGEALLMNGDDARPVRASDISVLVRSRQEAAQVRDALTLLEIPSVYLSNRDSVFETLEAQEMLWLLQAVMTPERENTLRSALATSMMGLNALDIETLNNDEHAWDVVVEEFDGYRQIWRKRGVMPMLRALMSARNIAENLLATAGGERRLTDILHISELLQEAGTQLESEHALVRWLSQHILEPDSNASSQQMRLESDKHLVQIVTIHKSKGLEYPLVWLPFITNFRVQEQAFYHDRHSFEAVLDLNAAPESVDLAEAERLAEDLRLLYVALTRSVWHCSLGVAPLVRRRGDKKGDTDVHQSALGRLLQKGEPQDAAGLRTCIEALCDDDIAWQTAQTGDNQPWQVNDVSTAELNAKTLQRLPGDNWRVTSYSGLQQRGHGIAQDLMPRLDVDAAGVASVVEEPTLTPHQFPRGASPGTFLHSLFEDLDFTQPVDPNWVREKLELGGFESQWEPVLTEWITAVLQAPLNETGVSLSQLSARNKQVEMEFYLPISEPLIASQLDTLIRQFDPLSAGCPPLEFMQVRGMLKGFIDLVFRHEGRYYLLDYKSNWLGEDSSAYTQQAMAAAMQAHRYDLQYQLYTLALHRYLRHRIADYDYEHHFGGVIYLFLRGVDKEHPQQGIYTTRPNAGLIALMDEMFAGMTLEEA
Chain of Serine/threonine-protein phosphatase (B9W6M3 whole entry): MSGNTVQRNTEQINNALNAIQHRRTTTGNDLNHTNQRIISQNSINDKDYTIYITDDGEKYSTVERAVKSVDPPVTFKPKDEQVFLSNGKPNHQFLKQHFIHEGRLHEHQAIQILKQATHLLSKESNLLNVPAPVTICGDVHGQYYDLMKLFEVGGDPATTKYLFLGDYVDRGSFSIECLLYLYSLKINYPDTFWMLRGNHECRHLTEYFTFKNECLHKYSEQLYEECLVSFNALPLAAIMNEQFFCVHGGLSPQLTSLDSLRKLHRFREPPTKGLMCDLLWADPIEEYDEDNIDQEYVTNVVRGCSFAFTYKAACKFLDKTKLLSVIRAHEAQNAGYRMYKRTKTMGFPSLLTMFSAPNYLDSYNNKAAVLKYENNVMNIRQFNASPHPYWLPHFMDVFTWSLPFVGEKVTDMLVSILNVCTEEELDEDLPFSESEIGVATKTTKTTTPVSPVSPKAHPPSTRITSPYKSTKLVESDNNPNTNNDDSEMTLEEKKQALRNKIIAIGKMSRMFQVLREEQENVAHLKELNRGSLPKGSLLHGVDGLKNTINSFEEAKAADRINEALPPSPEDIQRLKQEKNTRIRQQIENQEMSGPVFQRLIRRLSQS
Chain of ATP-dependent molecular chaperone HSP82 (C4YTQ8 whole entry): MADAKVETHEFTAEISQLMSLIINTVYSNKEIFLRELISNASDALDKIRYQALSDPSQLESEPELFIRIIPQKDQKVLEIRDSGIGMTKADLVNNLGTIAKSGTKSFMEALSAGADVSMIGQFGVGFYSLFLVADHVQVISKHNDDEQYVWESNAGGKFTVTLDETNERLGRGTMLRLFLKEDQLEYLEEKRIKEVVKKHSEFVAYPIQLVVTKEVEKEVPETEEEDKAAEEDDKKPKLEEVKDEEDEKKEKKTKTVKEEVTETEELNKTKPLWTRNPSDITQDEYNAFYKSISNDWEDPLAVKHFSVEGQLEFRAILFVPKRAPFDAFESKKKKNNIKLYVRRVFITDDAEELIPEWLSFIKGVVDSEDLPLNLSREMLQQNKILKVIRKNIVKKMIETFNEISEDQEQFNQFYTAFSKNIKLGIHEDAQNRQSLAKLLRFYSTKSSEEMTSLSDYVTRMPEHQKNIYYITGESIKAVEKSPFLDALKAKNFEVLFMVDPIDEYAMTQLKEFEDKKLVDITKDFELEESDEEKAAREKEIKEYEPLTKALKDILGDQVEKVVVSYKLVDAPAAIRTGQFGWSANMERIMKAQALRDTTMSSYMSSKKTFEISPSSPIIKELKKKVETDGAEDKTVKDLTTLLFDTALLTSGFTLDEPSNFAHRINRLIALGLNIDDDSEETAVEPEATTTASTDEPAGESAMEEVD

| Structure (SMILES) | IC50 [1] | IC50 (Caspase-3) | IC50 [2] | IC50 [3] | EC50 [4] | IC50 [5] | EC50 [6] | EC50 [7] | AC50 (INS1) | EC50 [8] | IC50 [9] | EC50 [10] | EC50 [11] | EC50 [12] | EC50 [13] | EC50 (cells) | IC50 (Exodeoxyribonuclease V) | EC50 [14] | EC50 [15] | EC50 [16] |
| --- | --- | --- | --- | --- | --- | --- | --- | --- | --- | --- | --- | --- | --- | --- | --- | --- | --- | --- | --- | --- |
| COc1ccc(N2CCN(C(=O)C(=O)c3c(C)[nH]c4ccccc34)CC2)cc1 | > 99 µM (inactive) | > 99 µM (inactive) | > 99 µM (inactive) | > 99 µM (inactive) | – | – | – | – | – | – | – | – | – | – | – | – | – | – | – | – |
| O=c1c2ccccc2nc(N/N=C/c2c(O)ccc3ccccc23)n1O | – | – | – | – | > 180 µM (inactive) | 75.3 µM (active) | > 12 µM (inconclusive) | 31 µM (active) | 1.23 µM (active) | > 150 µM (inactive) | > 119 µM (inactive) | 18.1 µM (active) | 13.6 µM (active) | < 0.1 µM (active) | 0.601 µM (active) | 1.26 µM (active) | > 119 µM (inactive) | 0.212 µM (active) | > 100 µM (inactive) | < 0.1 µM (active) |

— ChEMBL document CHEMBL1201862, “PubChem BioAssay data set” (2004)
